Experimental data reported in publication PMC10855388, “Small-Molecule-Directed Endogenous Regeneration of Visual Function in a Mammalian Retinal Degeneration Model” (International Journal of Molecular Sciences, 2024).

Experiments:
Experiment in all cases: KinaseProfiler in vitro kinase panel ([…] human kinases), single concentration […]
Assay type in all cases: biochemical
[1] = target: T1, PKA (Homo sapiens, UniProt P17612)
T1 construct: gene PRKACA

[2] = target: T2, p70S6K (Homo sapiens, UniProt P23443)
T2 construct: gene RPS6KB1
T2 sequence (P23443 whole entry): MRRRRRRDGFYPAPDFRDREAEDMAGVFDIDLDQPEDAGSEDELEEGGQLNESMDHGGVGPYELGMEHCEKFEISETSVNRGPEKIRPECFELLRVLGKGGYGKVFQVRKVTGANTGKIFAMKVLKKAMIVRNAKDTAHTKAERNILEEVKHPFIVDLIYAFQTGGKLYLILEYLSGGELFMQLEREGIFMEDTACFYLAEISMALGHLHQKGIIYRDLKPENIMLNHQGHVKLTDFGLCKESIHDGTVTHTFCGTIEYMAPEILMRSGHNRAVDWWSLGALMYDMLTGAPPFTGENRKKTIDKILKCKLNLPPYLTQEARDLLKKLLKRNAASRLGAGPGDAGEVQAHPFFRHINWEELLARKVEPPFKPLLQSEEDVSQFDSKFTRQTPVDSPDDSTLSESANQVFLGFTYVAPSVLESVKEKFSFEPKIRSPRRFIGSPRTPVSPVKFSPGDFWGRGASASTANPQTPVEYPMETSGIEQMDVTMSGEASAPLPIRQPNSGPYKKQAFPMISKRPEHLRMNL

[3] = target: T3, ROCK-I (Homo sapiens, UniProt Q13464)
T3 construct: gene ROCK1
T3 sequence (Q13464 2-1354): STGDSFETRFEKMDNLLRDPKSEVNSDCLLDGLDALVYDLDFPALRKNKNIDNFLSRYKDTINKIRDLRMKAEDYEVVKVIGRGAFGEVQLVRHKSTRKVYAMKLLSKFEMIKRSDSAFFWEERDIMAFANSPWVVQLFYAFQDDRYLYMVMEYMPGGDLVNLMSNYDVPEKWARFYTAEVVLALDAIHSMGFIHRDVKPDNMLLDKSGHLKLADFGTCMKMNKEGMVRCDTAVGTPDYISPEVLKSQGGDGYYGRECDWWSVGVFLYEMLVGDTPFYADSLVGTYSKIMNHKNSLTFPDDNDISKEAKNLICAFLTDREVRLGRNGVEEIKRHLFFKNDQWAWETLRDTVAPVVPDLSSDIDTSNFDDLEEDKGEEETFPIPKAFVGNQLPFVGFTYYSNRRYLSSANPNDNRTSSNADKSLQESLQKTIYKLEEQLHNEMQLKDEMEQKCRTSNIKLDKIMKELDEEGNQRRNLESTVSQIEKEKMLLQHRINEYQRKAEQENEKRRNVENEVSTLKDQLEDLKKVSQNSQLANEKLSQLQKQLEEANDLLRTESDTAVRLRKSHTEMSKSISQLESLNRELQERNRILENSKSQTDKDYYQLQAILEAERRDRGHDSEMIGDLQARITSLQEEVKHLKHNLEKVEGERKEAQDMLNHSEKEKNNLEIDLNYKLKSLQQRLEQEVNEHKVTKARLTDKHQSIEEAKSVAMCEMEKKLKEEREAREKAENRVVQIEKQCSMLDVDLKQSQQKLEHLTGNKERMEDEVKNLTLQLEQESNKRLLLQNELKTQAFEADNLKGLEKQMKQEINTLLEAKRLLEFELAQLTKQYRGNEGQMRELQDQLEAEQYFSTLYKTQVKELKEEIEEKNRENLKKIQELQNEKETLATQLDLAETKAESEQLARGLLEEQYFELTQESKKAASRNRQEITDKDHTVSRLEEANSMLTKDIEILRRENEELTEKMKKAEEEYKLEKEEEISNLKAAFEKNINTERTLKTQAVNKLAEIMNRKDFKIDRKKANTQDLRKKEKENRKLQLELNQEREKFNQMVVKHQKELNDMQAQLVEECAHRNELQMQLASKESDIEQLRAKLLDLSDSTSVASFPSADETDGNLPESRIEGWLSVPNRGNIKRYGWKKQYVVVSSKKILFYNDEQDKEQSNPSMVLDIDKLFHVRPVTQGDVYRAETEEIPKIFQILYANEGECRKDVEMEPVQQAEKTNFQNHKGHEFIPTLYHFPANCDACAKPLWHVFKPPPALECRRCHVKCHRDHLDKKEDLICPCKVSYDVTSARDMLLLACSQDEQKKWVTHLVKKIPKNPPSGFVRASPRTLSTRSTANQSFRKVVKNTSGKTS

[4] = target: T4, PKG1α (Homo sapiens, UniProt Q13976)
T4 construct: gene PRKG1
T4 sequence (Q13976 2-671): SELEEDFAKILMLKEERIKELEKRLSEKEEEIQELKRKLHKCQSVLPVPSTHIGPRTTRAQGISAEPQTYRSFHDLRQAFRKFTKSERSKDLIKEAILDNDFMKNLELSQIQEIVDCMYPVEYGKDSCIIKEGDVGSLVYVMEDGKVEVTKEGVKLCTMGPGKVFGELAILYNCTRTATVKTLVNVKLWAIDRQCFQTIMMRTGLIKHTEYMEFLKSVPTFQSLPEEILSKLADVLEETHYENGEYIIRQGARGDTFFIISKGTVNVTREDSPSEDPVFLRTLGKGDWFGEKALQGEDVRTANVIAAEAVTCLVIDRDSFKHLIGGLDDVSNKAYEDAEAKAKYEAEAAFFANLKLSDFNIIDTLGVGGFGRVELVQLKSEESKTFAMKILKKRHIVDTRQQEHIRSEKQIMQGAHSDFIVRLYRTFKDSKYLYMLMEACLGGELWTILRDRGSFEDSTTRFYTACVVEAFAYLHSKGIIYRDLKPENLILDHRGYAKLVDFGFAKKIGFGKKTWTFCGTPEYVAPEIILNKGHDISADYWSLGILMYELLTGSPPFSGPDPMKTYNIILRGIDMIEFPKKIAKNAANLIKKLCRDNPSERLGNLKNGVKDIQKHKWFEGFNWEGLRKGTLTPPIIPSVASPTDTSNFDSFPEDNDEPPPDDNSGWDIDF

inhibition at 5 µM [1]: > 75%
inhibition at 5 µM [2]: > 75%
inhibition at 5 µM [3]: > 75%
inhibition at 5 µM [4]: > 75%
SMILES: COc1cc(NC(=O)C2COc3ccccc3C2)ccc1-c1cnco1 (stereo not shown) [CompA, CompoundA]
